Experimental findings from BindingDB's records for doi:10.1021/acs.jmedchem.8b00705 (Zhejiang University, 2018) are described below.

This assay is described as follows: Inhibition of alpha-crystallin B R120G mutant (unknown origin)-induced intracellular protein aggregation expressed in human HeLa cells or HLE-B3 cells incubated for 6 to 8 hrs by fluorescence microscopy relative to untreated control.

`C[C@H](CCCC(C)(C)O)[C@H]1CC[C@@]2(C)C3=CC[C@H]4C(C)(C)[C@@H](O)CC[C@]4(C)C3=CC[C@]12C`: the EC50 (usually the concentration needed to bring the measured effect to its halfway point) was 64 nM. This counts as double-digit nanomolar.
Take `C[C@H](CCCC(C)(C)O)[C@H]1CC[C@@]2(C)C3=C(CC[C@]12C)[C@@]1(C)CC[C@H](O)C(C)(C)[C@@H]1CC3`: the EC50 turned out to be 57 nM. The EC50 values of the last two compounds are within 1.5-fold of each other.
`C[C@H](CCCC(C)(C)O)[C@H]1CC[C@@]2(C)C3=C(CC[C@]12C)[C@@]1(C)C[C@@H](F)[C@@H](O)C(C)(C)[C@@H]1CC3` gave a half-maximal effective concentration (EC50) of 26 nM.
`C[C@H](CCCC(C)(C)O)[C@H]1CC[C@@]2(C)C3=C(CC[C@]12C)[C@@]1(C)C[C@@H](F)[C@H](O)C(C)(C)[C@@H]1CC3`: the EC50 worked out at 18 nM. The EC50 values of the last two compounds are within 1.5-fold of each other.
`C[C@H](CCCC(C)(C)O)[C@H]1CC[C@@]2(C)C3=C(CC[C@]12C)[C@@]1(C)CCC(=O)C(C)(C)[C@@H]1CC3` registered an EC50 of 106 nM. Against the preceding compound, the EC50 is about 5.9-fold higher.
In turn, `C[C@H](CCCC(C)(C)O)[C@H]1CC[C@H]2[C@@H]3CC=C4C[C@@H](O)CC[C@]4(C)[C@H]3CC[C@]12C` [(1S,2R,5S,10S,11S,14R,15R)-14-[(2R)-6-hydroxy-6-methylheptan-2-yl]-2,15-dimethyltetracyclo[8.7.0.0^{2,7}.0^{11,15}]heptadec-7-en-5-ol] registered an EC50 of 320 nM. Against the preceding compound, the EC50 is about 3-fold higher.
Compound `CC(C)=CCC[C@@H](C)[C@H]1CC[C@@]2(C)C3=C(CC[C@]12C)[C@@]1(C)CC[C@H](O)C(C)(C)[C@@H]1CC3` [LANOSTEROL] displayed an EC50 of 1420 nM.
